Series [1] addresses Adenosine receptor A2a (Homo sapiens) (UniProt P29274). Nature of the series: Displacement of [3H]CGS21680 from human adenosine A2A receptor at 0.1 umol/L by scintillation counting. Background: In a radioligand displacement assay an active substance lowers the binding of a labelled ligand.
Series [2] shares this target. Nature of the series: Displacement of [3H]CGS21680 from human adenosine A2A receptor at 0.01 umol/L by scintillation counting.
Series [3] is described as follows: Intrinsic clearance in human liver microsome. The note with it: liver microsomes. Format: ADME. In general terms: Microsomes from liver hold many membrane-bound enzymes, among them those of drug oxidation.
Series [4] concerns Mus musculus. In words: Antiparkinsonian effect in mouse assessed as inhibition of CGS-21680-induced catalepsy at 10 mg/kg, po. The note with it: for inhibition in vivo at 10 mg/kg: Mus musculus. Format: functional.
Series [5] is described as follows: Intrinsic clearance in marmoset liver microsome […]. The format is ADME, Callithrix jacchus. The note with it: liver microsomes.
Series [6] can be described thus: Solubility n JP2 fluid. Format: physicochemical.
In series [7] the target is T1, Adenosine receptor A1 (Homo sapiens) (UniProt P30542).
T1 sequence (whole entry): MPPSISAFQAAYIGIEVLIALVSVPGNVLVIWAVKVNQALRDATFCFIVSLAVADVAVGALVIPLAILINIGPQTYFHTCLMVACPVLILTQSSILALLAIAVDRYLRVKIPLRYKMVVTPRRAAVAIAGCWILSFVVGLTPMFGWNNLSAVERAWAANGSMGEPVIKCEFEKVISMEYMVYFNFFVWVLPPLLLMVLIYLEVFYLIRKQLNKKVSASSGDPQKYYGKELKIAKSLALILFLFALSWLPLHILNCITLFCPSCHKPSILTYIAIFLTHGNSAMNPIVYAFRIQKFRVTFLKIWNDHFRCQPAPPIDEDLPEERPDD
Nature of the series: Antagonist activity at human adenosine A1 receptor at 1 umol/L. Format: functional.

Series [8] concerns the target T2, Adenosine receptor A2b (Homo sapiens) (UniProt P29275).
T2 sequence (whole entry): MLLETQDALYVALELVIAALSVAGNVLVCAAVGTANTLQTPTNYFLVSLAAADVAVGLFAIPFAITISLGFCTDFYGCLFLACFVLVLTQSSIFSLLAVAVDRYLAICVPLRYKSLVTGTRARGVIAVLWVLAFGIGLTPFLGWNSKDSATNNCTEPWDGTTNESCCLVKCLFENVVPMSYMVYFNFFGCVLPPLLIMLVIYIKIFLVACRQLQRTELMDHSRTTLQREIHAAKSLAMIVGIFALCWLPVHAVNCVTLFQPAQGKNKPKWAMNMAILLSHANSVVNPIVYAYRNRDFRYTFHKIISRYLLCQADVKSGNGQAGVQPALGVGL
In words: Antagonist activity at human adenosine A2B receptor at 1 umol/L. The format is functional.

Molecules are shown by their SMILES. In brackets after ≈: the same amount, converted by molar mass. A value given as a limit tells only on which side of the number the result lay.

For orientation: inhibition means the change of the read-out against control, counted positive when it falls. A word on the CLint scaled: it is the rate of metabolic loss divided by the concentration. A high value points to faster metabolism. Broadly, the inhibition in vivo is the change of the read-out against control, counted positive when it falls. For orientation: solubility means how much of the substance goes into solution per volume.

Adenosine receptor A2a (Homo sapiens), sequence (P29274 whole entry): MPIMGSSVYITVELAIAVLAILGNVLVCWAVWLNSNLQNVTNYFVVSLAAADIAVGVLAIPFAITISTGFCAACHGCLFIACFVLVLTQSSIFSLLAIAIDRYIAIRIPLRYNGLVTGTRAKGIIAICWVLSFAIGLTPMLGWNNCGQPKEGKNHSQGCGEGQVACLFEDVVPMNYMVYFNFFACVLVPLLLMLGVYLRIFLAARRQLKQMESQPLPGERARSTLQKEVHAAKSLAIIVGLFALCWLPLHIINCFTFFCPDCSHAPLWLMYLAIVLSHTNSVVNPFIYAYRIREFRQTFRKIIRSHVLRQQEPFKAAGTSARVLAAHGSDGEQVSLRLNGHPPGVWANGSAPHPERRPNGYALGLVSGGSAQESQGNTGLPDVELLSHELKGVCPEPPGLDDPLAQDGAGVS

On to `COc1c(N2CCOCC2)ccc2cc(C(=O)Nc3ccncc3)oc12`, for which the inhibition in series [1] was -5%.

In the case of `COc1ccc(-c2cccnc2)c2cc(C(=O)Nc3ccc(Cn4ccnc4)cc3)oc12`, the figures for the inhibition in series [2] and in series [1] were 46% and 83%, respectively. The same compound had a CLint scaled in series [3] of 53 mL/min/kg. Further, the inhibition in vivo at 10 mg/kg in series [4] was 60%.

On to `CNC(=O)c1cc2c(N3CCOCC3)ccc(OC)c2o1`, for which the inhibition in series [2] worked out at 23%; in series [1] it was 58%. In series [5], the intrinsic clearance (CLint scaled) was 21.7 mL/min/kg. In series [6], this compound returned a solubility of 97 µg/mL (≈ 334 µM).

With `COc1ccc(-c2ccncc2)c2cc(C(=O)Nc3ccc(Cn4ccnc4)cc3)oc12`, the inhibition came out at 56% in series [2] and 90% in series [1]. The compound also gave a CLint scaled in series [3] of 40.7 mL/min/kg. The inhibition in vivo at 10 mg/kg in series [4] was determined as 60%.

Regarding `COc1ccc(N2CCOCC2)c2oc(C(=O)Nc3ccncc3)cc12`, the inhibition in series [2] came out at 26%; in series [1], 77%.

On to `COc1ccc(-c2ccncc2)c2cc(C(=O)Nc3ccncc3)oc12`, for which the inhibition turned out to be 18% in series [2] and 72% in series [1]. In series [3], this compound had a CLint scaled of 32.8 mL/min/kg. Moreover, the inhibition in vivo at 10 mg/kg in series [4] is 48%.

With `COc1ccc(N2CCOCC2)c2cc(C(=O)Nc3ccc(Cn4ccnc4)cc3)oc12`, the inhibition in series [2] was determined as 50%; in series [1], 89%. This compound also gave a CLint scaled in series [5] of 133 mL/min/kg. In addition, in series [6], the concentration in solution (solubility) came to 2 µg/mL (≈ 4.62 µM).

Turning to `COc1ccc(N2CCOCC2)c2cc(C(=O)Nc3ccncc3)oc12`, the inhibition in series [2] worked out at 30%; in series [1], 73%; in series [7], 4%; in series [8], 21%. Besides, the inhibition in vivo at 10 mg/kg in series [4] is 76%. This compound also gave a CLint scaled in series [5] below 7.17 mL/min/kg. Moreover, the solubility in series [6] was 87 µg/mL (≈ 246 µM).

For the compound `CCNC(=O)c1cc2c(N3CCOCC3)ccc(OC)c2o1`, the inhibition was 37% in series [2] and 87% in series [1]. The inhibition in vivo at 10 mg/kg in series [4] is 44%.

Turning to `COc1ccc(-c2cccnc2)c2cc(C(=O)Nc3ccncc3)oc12`, the inhibition in series [2] amounted to 27%; in series [1], 67%. The compound also showed a CLint scaled in series [3] of 57 mL/min/kg. Further, the inhibition in vivo at 10 mg/kg in series [4] was found to be 38%.

In the case of `COc1ccc(-c2cnccn2)c2cc(C(=O)Nc3ccc(Cn4ccnc4)cc3)oc12`, the inhibition in series [2] amounted to 20%; in series [1], 44%. This compound registered a CLint scaled in series [3] below 7.83 mL/min/kg.

Turning to `COc1ccc(-c2cnccn2)c2cc(C(=O)Nc3ccncc3)oc12`, the inhibition stood at 24% in series [2] and 22% in series [1]. The CLint scaled in series [3] is 154 mL/min/kg.

Consider `COc1ccc(N2CCOCC2)c2cc(C(=O)Nc3ccc(CN4CCC(O)CC4)cc3)oc12`, for which the figures for the inhibition in series [2] and in series [1] were 39% and 74%, respectively. The inhibition in vivo at 10 mg/kg in series [4] is 50%. The same compound yielded a solubility in series [6] of 47 µg/mL (≈ 101 µM).

On to `COc1ccc(-c2ccccn2)c2cc(C(=O)Nc3ccncc3)oc12`, for which the inhibition in series [2] is 4%; in series [1], 27%. In series [3], the CLint scaled was 37.2 mL/min/kg.

As for `COc1ccc(-c2ccccc2)c2cc(C(=O)Nc3ccncc3)oc12`, the figures for the inhibition in series [2] and in series [1] were 29% and 87%, respectively. For the same compound, the CLint scaled in series [3] was 580 mL/min/kg. In addition, in series [4], the inhibition (INH) came out at 40%.

For `COc1ccc(N2CCOCC2)c2cc(C(=O)NC3CCN(c4ncccn4)CC3)oc12`, the inhibition was -2% in series [2] and 26% in series [1].
